Earlier results as cited in US5594133A, “Crystalline acid addition salts of diastereomerically pure 1-(2,2-dimethylpropinonyloxy)-ethyl-3-cephem-4-carboxylate” (Hoechst Aktiengesellschaft, priority 1991, dated 1997).

How the values were obtained:
[1] = T. Nishimura et al., J. Antibiotics XL (1987) 81-90
[2] = EP-A-0 329 008

Row | splitting by endogenous enzymes into the cephalosporin containing the free carboxyl group ([2]; after absorption) | enteral absorption ([2]; various animal species) | SMILES | influence of the stereochemistry in the 1-position of the ethyl ester group on enteral absorbability [1]
1 |  |  | CC(OC(=O)OC1CCCCC1)OC(=O)C1=C(CSc2nnnn2CCN(C)C)CS[C@@H]2[C@H](NC(=O)Cc3csc(N)n3)C(=O)N12 (stereo partly drawn) [cefotiam-hexetil] | no influence on enteral absorbability
2 | split again rapidly and completely | absorbed well enterally | COCC1=C(C(=O)OC(C)OC(=O)C(C)(C)C)N2C(=O)C(NC(=O)/C(=N\O)c3csc(N)n3)[C@H]2SC1 (stereo partly drawn) [ester of the formula I, 1-(2,2-dimethylpropionyloxy)-ethyl 7-[2-(2-aminothiazol-4-yl)-2-(Z)-hydroxyimino-acetamido]-3-methoxymethyl-3-cephem-4-carboxylate] | 
